Data published in PubChem BioAssay (NCI).
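A five-concentration, 48-hour dose response in 96-well plates underlies each endpoint, interpolated linearly between surrounding concentrations. GI50 is the concentration that inhibits growth by half. Definition used: TGI = concentration required for complete inhibition of growth.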

Assays:
Experiment in all cases: inhibition of tumour cell growth, NCI panel, 48 h
[1] = tested on: 786-0 renal
[2] = tested on: A498 renal
[3] = tested on: A549 NSCLC
[4] = tested on: ACHN renal
[5] = tested on: CCRF-CEM leukemia
[6] = tested on: COLO 205 colon
[7] = tested on: DMS 114 small cell lung
[8] = tested on: DMS 273 small cell lung
[9] = tested on: EKVX NSCLC
[10] = tested on: HCC-2998 colon
[11] = tested on: HCT-116 colon
[12] = tested on: HCT-15 colon
[13] = tested on: HL-60(TB) leukemia
[14] = tested on: HOP-62 NSCLC
[15] = tested on: HT29 colon
[16] = tested on: IGROV1 ovarian
[17] = tested on: K-562 leukemia
[18] = tested on: KM12 colon
[19] = tested on: KM20L2 colon
[20] = tested on: LOX IMVI melanoma
[21] = tested on: LXFL 529 NSCLC
[22] = tested on: M14 melanoma
[23] = tested on: M19-MEL melanoma
[24] = tested on: MALME-3M melanoma
[25] = tested on: MOLT-4 leukemia
[26] = tested on: NCI-H226 lung
[27] = tested on: NCI-H23 lung
[28] = tested on: NCI-H460 lung
[29] = tested on: NCI-H522 lung
[30] = tested on: OVCAR-3 ovarian
[31] = tested on: OVCAR-4 ovarian
[32] = tested on: OVCAR-5 ovarian
[33] = tested on: OVCAR-8 ovarian
[34] = tested on: RPMI-8226 leukemia
[35] = tested on: SF-268 CNS
[36] = tested on: SF-539 CNS
[37] = tested on: SK-MEL-2 melanoma
[38] = tested on: SK-MEL-28 melanoma
[39] = tested on: SK-MEL-5 melanoma
[40] = tested on: SK-OV-3 ovarian
[41] = tested on: SN12C renal
[42] = tested on: SNB-19 CNS
[43] = tested on: SNB-78 CNS
[44] = tested on: SR leukemia
[45] = tested on: SW-620 colon
[46] = tested on: TK-10 renal
[47] = tested on: U251 CNS
[48] = tested on: UACC-257 melanoma
[49] = tested on: UACC-62 melanoma
[50] = tested on: UO-31 renal
[51] = tested on: XF 498 CNS
[52] = tested on: CAKI-1 renal
[53] = tested on: DLD-1 colon
[54] = tested on: HOP-18 NSCLC
[55] = tested on: HOP-92 NSCLC
[56] = tested on: RXF 393 renal
[57] = tested on: SF-295 CNS
[58] = tested on: SNB-75 CNS

In the case of `CC(=O)NNc1nc(C)c(C(=O)NNC(=O)C(=O)Nc2ccc([N+](=O)[O-])cc2C#N)s1`, the TGI [1] is reported as greater than 100 µM, the TGI [2] is reported as greater than 100 µM and the TGI [3] is reported as greater than 100 µM. It also gave a TGI [4] greater than 100 µM, a TGI [5] greater than 100 µM and a TGI [6] greater than 100 µM. For the same molecule, the TGI [7] was greater than 100 µM, the TGI [8] was greater than 100 µM and the TGI [9] was greater than 100 µM. For the same molecule, the TGI [10] was greater than 100 µM, the TGI [11] was greater than 100 µM and the TGI [12] was greater than 100 µM. For the same molecule, the TGI [13] was greater than 100 µM, the TGI [14] was greater than 100 µM and the TGI [15] was greater than 100 µM. The TGI [16] was greater than 100 µM, the TGI [17] was greater than 100 µM and the TGI [18] was greater than 100 µM. For the same molecule, the TGI [19] was greater than 100 µM, the TGI [20] was greater than 100 µM and the TGI [21] was greater than 100 µM. It also gave a TGI [22] greater than 100 µM, a TGI [23] greater than 100 µM and a TGI [24] greater than 100 µM. It also gave a TGI [25] greater than 100 µM, a TGI [26] greater than 100 µM and a TGI [27] greater than 100 µM. For the same molecule, the TGI [28] was greater than 100 µM, the TGI [29] was greater than 100 µM and the TGI [30] was greater than 100 µM. The TGI [31] was greater than 100 µM, the TGI [32] was greater than 100 µM and the TGI [33] was greater than 100 µM. For the same molecule, the TGI [34] was greater than 100 µM, the TGI [35] was greater than 100 µM and the TGI [36] was greater than 100 µM. It also gave a TGI [37] greater than 100 µM, a TGI [38] greater than 100 µM and a TGI [39] greater than 100 µM. The TGI [40] was greater than 100 µM, the TGI [41] was greater than 100 µM and the TGI [42] was greater than 100 µM. The TGI [43] was greater than 100 µM, the TGI [44] was greater than 100 µM and the TGI [45] was greater than 100 µM. The TGI [46] was greater than 100 µM, the TGI [47] was greater than 100 µM and the TGI [48] was greater than 100 µM. The TGI [49] was greater than 100 µM, the TGI [50] was greater than 100 µM and the TGI [51] was greater than 100 µM.

For `COc1ccc2[nH]c3c(C)cc([N+](=O)[O-])c(C)c3c2c1`, the TGI [1] was greater than 100 µM, the TGI [2] was 59.6 µM and the TGI [3] was 75.3 µM. It also gave a TGI [4] of 63.1 µM, a TGI [52] greater than 100 µM and a TGI [5] of 56.4 µM. The TGI [6] was greater than 100 µM, the TGI [53] was 72.7 µM and the TGI [7] was 58.3 µM. It also gave a TGI [8] of 45.4 µM, a TGI [9] greater than 100 µM and a TGI [10] of 67.7 µM. It also gave a TGI [11] of 58.7 µM, a TGI [12] greater than 100 µM and a TGI [13] of 50.4 µM. It also gave a TGI [54] greater than 100 µM, a TGI [55] of 80.6 µM and a TGI [15] of 83.8 µM. The TGI [16] was greater than 100 µM, the TGI [17] was 44.3 µM and the TGI [18] was 45.4 µM. The TGI [19] was greater than 100 µM, the TGI [21] was greater than 100 µM and the TGI [22] was 53.2 µM. The TGI [23] was 45.1 µM, the TGI [24] was 73.4 µM and the TGI [25] was greater than 100 µM. The TGI [26] was greater than 100 µM, the TGI [27] was greater than 100 µM and the TGI [28] was 39.7 µM. For the same molecule, the TGI [29] was 43 µM, the TGI [30] was greater than 100 µM and the TGI [31] was greater than 100 µM. The TGI [33] was 79.9 µM, the TGI [34] was 62.7 µM and the TGI [56] was 41.9 µM. It also gave a TGI [35] greater than 100 µM, a TGI [57] greater than 100 µM and a TGI [36] greater than 100 µM. The TGI [37] was 46 µM, the TGI [38] was 92.2 µM and the TGI [39] was 88.4 µM. For the same molecule, the TGI [40] was 78.3 µM, the TGI [41] was greater than 100 µM and the TGI [42] was greater than 100 µM. For the same molecule, the TGI [58] was 86.1 µM, the TGI [44] was 58.5 µM and the TGI [45] was greater than 100 µM. For the same molecule, the TGI [46] was 76.5 µM, the TGI [47] was 97.8 µM and the TGI [48] was greater than 100 µM. For the same molecule, the TGI [50] was 71 µM and the TGI [51] was greater than 100 µM.

With `O=C(N/N=C/c1cc(Cl)cc(Cl)c1[O-])c1ccccc1.O=C(N/N=C/c1cc(Cl)cc(Cl)c1[O-])c1ccccc1.[Co+2]` the GI50 [1] was 10.4 µM, the TGI [1] was greater than 100 µM and the GI50 [2] was 34.4 µM. For the same molecule, the TGI [2] was greater than 100 µM, the GI50 [3] was 28.8 µM and the TGI [3] was greater than 100 µM. For the same molecule, the GI50 [4] was 16.7 µM, the TGI [4] was greater than 100 µM and the GI50 [52] was 21.7 µM. It also gave a TGI [52] greater than 100 µM, a GI50 [5] of 3.43 µM and a TGI [5] of 19.6 µM. For the same molecule, the GI50 [6] was 42.1 µM, the TGI [6] was greater than 100 µM and the GI50 [53] was 14.7 µM. It also gave a TGI [53] greater than 100 µM, a GI50 [7] of 10.6 µM and a TGI [7] of 67.9 µM. For the same molecule, the GI50 [9] was 10.3 µM, the TGI [9] was greater than 100 µM and the GI50 [10] was 40.7 µM. It also gave a TGI [10] greater than 100 µM, a GI50 [11] of 14.6 µM and a TGI [11] greater than 100 µM. It also gave a GI50 [12] of 7.22 µM, a TGI [12] greater than 100 µM and a GI50 [13] of 2.62 µM. It also gave a TGI [13] of 8.89 µM, a GI50 [54] of 9.34 µM and a TGI [54] greater than 100 µM. It also gave a GI50 [14] of 24.8 µM, a TGI [14] greater than 100 µM and a GI50 [55] of 5.71 µM. It also gave a TGI [55] of 46.9 µM, a GI50 [15] of 49.5 µM and a TGI [15] greater than 100 µM. The GI50 [16] was 27.8 µM, the TGI [16] was greater than 100 µM and the GI50 [17] was 15.6 µM. It also gave a TGI [17] of 76.7 µM, a GI50 [18] of 27.3 µM and a TGI [18] greater than 100 µM. It also gave a GI50 [19] of 47.8 µM, a TGI [19] greater than 100 µM and a GI50 [20] of 9.19 µM. The TGI [20] was greater than 100 µM, the GI50 [21] was 7.38 µM and the TGI [21] was greater than 100 µM. The GI50 [22] was 17.8 µM, the TGI [22] was 78.3 µM and the GI50 [23] was 20.5 µM. It also gave a TGI [23] greater than 100 µM, a GI50 [24] of 33 µM and a TGI [24] greater than 100 µM. It also gave a GI50 [25] of 4.43 µM, a TGI [25] of 21.4 µM and a GI50 [26] of 26.5 µM. The TGI [26] was 92.2 µM, the GI50 [27] was 21 µM and the TGI [27] was greater than 100 µM. It also gave a GI50 [28] of 16.7 µM, a TGI [28] greater than 100 µM and a GI50 [30] of 3.18 µM. For the same molecule, the TGI [30] was greater than 100 µM, the GI50 [31] was 16.1 µM and the TGI [31] was greater than 100 µM. The GI50 [32] was 46.5 µM, the TGI [32] was greater than 100 µM and the GI50 [33] was 21.1 µM. For the same molecule, the TGI [33] was greater than 100 µM, the GI50 [34] was 13.4 µM and the TGI [34] was greater than 100 µM. The GI50 [57] was 20.8 µM, the TGI [57] was 97.6 µM and the GI50 [36] was 20.5 µM. For the same molecule, the TGI [36] was 93 µM, the GI50 [37] was 26.5 µM and the TGI [37] was greater than 100 µM. It also gave a GI50 [39] of 29 µM, a TGI [39] greater than 100 µM and a GI50 [40] of 40.9 µM. For the same molecule, the TGI [40] was greater than 100 µM, the GI50 [41] was 14.8 µM and the TGI [41] was greater than 100 µM. For the same molecule, the GI50 [42] was 45 µM, the TGI [42] was greater than 100 µM and the GI50 [58] was 25.3 µM. For the same molecule, the TGI [58] was greater than 100 µM, the GI50 [43] was 53.2 µM and the TGI [43] was greater than 100 µM. For the same molecule, the GI50 [45] was 24.9 µM, the TGI [45] was greater than 100 µM and the GI50 [46] was 41 µM. The TGI [46] was greater than 100 µM, the GI50 [47] was 33.5 µM and the TGI [47] was greater than 100 µM. For the same molecule, the GI50 [48] was 19.6 µM, the TGI [48] was 76.3 µM and the GI50 [49] was 12.2 µM. For the same molecule, the TGI [49] was 51.6 µM, the GI50 [50] was 16.8 µM and the TGI [50] was 73.3 µM. For the same molecule, the GI50 [51] was 12.4 µM and the TGI [51] was greater than 100 µM.
